Key:
Format in all cases: cell-based, mice
[1] = target: T1, fast synaptic α1β2γ2 receptors (Mus musculus, UniProt P22723+P62812+P63137); test: Phasic current recordings in fluorescently labeled PV+INs; conditions: 1 nM, 1-(current in drug/current in control), read-out: fraction inhibited of the phasic current
T1 construct: from tissue; host or cells: mouse cortical and hippocampal brain slices; tdTomato-labelled PV+ interneurons
Description: (§1) Mice aged 8-24 weeks of both sexes will be anesthetized with halothane and decapitated according to the UCLA Chancellor's Animal Research Committee protocol. Horizontal 350 μm hippocampal slices are cut on a Leica VT1000S Vibratome in ice-cold N-Methyl-D-Glucamine (NMDG)-based HEPES-buffered cutting solution, containing in mM: NMDG 135, D-glucose 10, MgCl2 4, CaCl20.5, KCl 1, KH2PO4 1.2, HEPES 26, kynurenic acid 3, pH 7.3-7.4, 295-297 mOsm/l, bubbled with 100% O2. […]
(§2) For these experiments mice expressing hChR2(H134R)-tdTomato specifically in PV+Ins will be used. […] Cells will be voltage-clamped at 0 mV where tonic and phasic GABAAR mediated currents can be recorded without interference from excitatory events. The tonic and phasic components of the currents will be determined as published using Gaussian fits to the all-points histograms of 30 s epochs of recordings during the pre-drug period, 5-10 min after the washin of the drug to be tested, and 1-2 min after washing-in 40 μM of the pan-GABAAR blocker gabazine (SR-95531). The magnitude of the tonic and phasic currents willbe determined by subtracting the currents in the presence of gabazine. […]

[2] = tested on: dentate gyrus granule cells (α4β2/3δ); test: Tonic inhibition in dentate gyrus granule cells (selectivity); conditions: 1 nM
Description: In addition to the α1β2δ GABAARs of PV+INs, the following native δ-GABAARs subunit combinations are present in the brain: (α6β2δ on cerebellar granule cells; α4β2/3δ are most prominent in the forebrain where they are found among other neurons on dentate gyrus granule cells. To establish selectivity of the compounds for the α1β2δ GABAARs of PV+INs, the compounds effects in cerebellar granule cells (α6β2δ) and dentate gyrus granule cells (α4β2/3δ) will be compared.
Selectivity measurement will be performed by dividing the blocking fractions of the compounds for tonic inhibition obtained for the PV+IN above by the values determined for cerebellar and dentate gyrus granule cells.

[3] = tested on: γ-oscillations in the CA3 region hippocampal slices; test: In vitro KA-induced γ-oscillations in the CA3 region hippocampal slices; conditions: 1 nM; 2 min epochs before and after application; 50 nM kainic acid
Description: as §1
The oscillations can be recorded in the presence of 50 nM kainic acid in horizontally cut hippocampal slices just below the CA3 pyramidal cells layer, and the oscillations recorded in vitro correspond well to those recorded in vivo during spatial reference memory. […] The squared magnitude of the FFT of the oscillations will be analyzed between 30-120 Hz. The area under the FFT curve will be calculated between these two frequencies and compared during a 2 min epoch just before the perfusion of the drug to the last 2 min of a 10 min drug perfusion. The ratios of the areas in-drug/pre-drug will be calculated as in FIG. 1B.
γ-oscillations were recorded in the presence of 50 nM kainic acid in horizontally cut hippocampal slices just below the CA3 pyramidal cells layer. These oscillations recorded in vitro correspond well to those recorded in vivo during spatial reference memory. […]

[4] = target: T2, α1β2δ GABAARs of PV+INs (Mus musculus, UniProt P22933+P62812+P63137); test: Tonic current recordings in fluorescently labeled PV+INs; conditions: 1 nM, 1-(current in drug/current in control), read-out: fraction inhibited of the tonic current
T2 construct: the native α1β2δ receptors of PV+INs; from tissue; host or cells: mouse cortical and hippocampal brain slices; tdTomato-labelled PV+ interneurons
Description: as §1, §2

T2 sequence (P62812 28-455): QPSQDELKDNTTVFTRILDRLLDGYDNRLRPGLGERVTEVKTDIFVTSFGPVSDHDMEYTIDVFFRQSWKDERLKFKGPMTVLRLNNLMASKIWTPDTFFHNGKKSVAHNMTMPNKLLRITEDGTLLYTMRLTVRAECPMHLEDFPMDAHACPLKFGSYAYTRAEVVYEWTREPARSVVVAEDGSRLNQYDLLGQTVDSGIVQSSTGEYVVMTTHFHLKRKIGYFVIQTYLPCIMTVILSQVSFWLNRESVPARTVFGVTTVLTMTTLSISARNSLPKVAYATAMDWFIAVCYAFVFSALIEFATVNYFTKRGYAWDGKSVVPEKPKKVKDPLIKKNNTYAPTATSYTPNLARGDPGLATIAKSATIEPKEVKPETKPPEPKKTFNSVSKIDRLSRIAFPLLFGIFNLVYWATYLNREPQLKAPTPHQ
T2 sequence (P63137 26-512): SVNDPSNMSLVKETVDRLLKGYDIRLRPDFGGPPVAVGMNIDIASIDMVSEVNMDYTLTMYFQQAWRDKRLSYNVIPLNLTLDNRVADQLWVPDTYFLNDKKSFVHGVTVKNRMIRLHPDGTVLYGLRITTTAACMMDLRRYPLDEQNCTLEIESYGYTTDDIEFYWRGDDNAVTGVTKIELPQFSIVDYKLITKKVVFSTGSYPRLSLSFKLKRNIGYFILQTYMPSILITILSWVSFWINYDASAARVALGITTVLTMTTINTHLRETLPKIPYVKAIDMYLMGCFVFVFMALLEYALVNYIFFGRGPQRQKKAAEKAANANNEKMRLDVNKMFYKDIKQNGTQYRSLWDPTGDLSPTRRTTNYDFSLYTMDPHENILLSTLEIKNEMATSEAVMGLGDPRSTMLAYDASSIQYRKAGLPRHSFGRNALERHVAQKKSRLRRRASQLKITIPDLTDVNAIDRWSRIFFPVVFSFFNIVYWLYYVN
T2 sequence (P22933 25-449): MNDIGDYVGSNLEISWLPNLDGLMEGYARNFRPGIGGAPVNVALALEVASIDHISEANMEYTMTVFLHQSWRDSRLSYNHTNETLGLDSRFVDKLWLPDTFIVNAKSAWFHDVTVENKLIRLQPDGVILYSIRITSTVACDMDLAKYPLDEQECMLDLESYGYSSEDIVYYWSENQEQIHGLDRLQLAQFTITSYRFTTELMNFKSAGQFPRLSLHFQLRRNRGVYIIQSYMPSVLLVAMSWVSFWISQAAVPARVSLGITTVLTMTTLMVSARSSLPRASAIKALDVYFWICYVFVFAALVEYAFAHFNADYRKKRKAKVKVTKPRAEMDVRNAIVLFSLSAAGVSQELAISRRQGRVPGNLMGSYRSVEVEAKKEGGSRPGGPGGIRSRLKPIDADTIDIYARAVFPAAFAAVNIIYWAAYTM
T1 sequence (P62812 28-455): as the sequence (P62812 28-455) above
T1 sequence (P63137 25-512 limits assumed): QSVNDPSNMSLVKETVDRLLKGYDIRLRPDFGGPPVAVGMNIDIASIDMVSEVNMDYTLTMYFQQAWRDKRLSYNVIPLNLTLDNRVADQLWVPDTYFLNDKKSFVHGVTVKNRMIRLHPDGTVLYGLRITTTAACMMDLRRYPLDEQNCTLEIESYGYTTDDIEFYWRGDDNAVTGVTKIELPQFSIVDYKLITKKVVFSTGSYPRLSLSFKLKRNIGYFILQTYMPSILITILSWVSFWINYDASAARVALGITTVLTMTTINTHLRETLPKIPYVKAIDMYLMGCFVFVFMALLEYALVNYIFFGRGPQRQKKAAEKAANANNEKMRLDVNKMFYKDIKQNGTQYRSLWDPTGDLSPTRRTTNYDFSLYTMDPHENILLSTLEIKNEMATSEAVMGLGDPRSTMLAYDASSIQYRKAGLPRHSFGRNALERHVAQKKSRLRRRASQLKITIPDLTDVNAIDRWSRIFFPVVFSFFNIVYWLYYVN
T1 sequence (P22723 39-474): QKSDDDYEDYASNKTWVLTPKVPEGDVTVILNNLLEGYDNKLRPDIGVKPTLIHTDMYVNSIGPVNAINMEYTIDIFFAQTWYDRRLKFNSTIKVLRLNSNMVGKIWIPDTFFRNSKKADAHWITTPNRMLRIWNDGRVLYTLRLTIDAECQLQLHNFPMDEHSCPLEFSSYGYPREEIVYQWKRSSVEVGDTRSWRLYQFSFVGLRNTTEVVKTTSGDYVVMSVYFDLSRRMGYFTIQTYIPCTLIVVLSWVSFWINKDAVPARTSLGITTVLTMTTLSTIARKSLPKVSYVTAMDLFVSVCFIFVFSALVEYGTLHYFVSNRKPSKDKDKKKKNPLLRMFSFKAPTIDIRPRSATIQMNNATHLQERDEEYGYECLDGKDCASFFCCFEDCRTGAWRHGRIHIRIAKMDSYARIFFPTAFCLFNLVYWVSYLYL

inhibition at 0.001 µM [1]: 1.1%
inhibition at 0.001 µM [4]: 79.2%
SMILES: On1cc(C2CCNCC2)c(Cc2ccc3ccccc3c2)n1 [DDL-920, 3-(naphthalen-2-ylmethyl)-4-(piperidin-4-yl)-1H-pyrazol-1-ol]
blocking fraction for tonic inhibition in dentate granule cells [2]: 0.376
selectivity, PV+IN vs dentate granule cell blocking fraction of tonic inhibition ([2]; PV+IN/dentate granule cell): 2.11
ratio of the drug/control areas under the FFT curve between 30-120 Hz [3]: 4.26
